Data reported in US6747023B1 (Daiichi Pharmaceutical Co., Ltd., priority 1998, dated 2004).
Where a name gives a salt, the structure may show the parent alone. Read-outs that look alike come from different tables or passages of the source.

Experiments:
[1] = test system: prothrombin time of the plasma; experiment: Test of oral administration: coagulation extending action (prothrombin time); assay type: in vivo, Wistar male rat; conditions: rat, oral administration of 30 mg/kg
Description: (§1) A sample was dissolved or suspended in a 0.5% (w/v) methyl cellulose solution and the resulting solution or suspension was orally administered (10 ml/kg) to a 8 to 11 week-old rat (Wistar male rat (Nippon SLC Co., Ltd.)) which had been fasted overnight. After administration of the sample, the blood to which 1/10 part by weight of 3.13% (w/v) sodium citrate had been added was collected from the cervical vein under anesthesia with halothane. The rat was awakened except during the blood collection. Feeding was re-started 6 hours after the blood collection. From each blood sample, the plasma was separated by centrifugal separation and anti-FXa activity in the blood and prothrombin time extending action were measured.
To 20 μl of the plasma, 40 μl of cynplastin (Organon Teknika/USA) was added and the coagulation time was measured. The ratio of the prothrombin time after the administration of the sample relative to the prothrombin time before the administration of the sample was designated as an index of the coagulation extending action.

human Factor Xa = human Factor Xa (Homo sapiens, UniProt P00742); experiment: Test of oral administration: anti-FXa activity in the plasma; assay type: in vivo, Wistar male rat; conditions: rat, one hour after the oral administration of 30 mg/kg
Description: as §1
In a 96-well plate, 5 μl of the plasma was poured in portions, followed by the addition of 55 μl of a 8:1:2 mixture of 100 mM tris.200 mM sodium chloride.0.2% BSA (pH 7.4) buffer, water and 0.1 U/ml human Factor Xa solution (dissolved in and diluted with a measuring buffer) and 40 μl of 750 μM S-2222. After stirring for 10 seconds in a plate mixer, an increase (mOD/min) of the absorbance at 405 nm was measured at room temperature. The inhibitory ratio was calculated as follows:
An inhibitory ratio (%)=(1−OD of sample÷OD of control on average relative to blood-collecting time of sample)×100

human thrombin = biological target: T1, human thrombin (Homo sapiens, UniProt P00734); experiment: Measurement of thrombin inhibitory action (IC50); assay type: biochemical
T1 construct: carries out limited proteolysis of prothrombin, thereby forming thrombin; purchased Sigma Chemical
Description: Measurement of Thrombin Inhibitory Action (IC50)
In a 96-well microtiter plate, 10 μl of a sample solution, 40 μl of a 100 mM tris.200 mM sodium chloride 0.2% BSA (pH: 7.4) buffer and 10 μl of 4 U/ml human thrombin (Sigma Chemical, dissolved in and diluted with a measuring buffer) were poured in portions, followed by the addition of 40 μl of 500 μM S2266 (product of Chromogenix). An increase (mOD/min) in the absorbance at 405 nm was measured at room temperature. From the below-described equation, an inhibitory ratio % of each sample was determined. On a logarithmic probability paper, the final concentration of the sample and inhibitory ratio % were plotted along the abscissa and the ordinate, respectively, whereby a 50% inhibitory concentration (IC50) was found.
(§2) Inhibitory ratio (%)=(1−OD of sample÷OD of control)×100

human FXa = biological target: T2, human FXa (Homo sapiens, UniProt P00742); experiment: Measurement of FXa inhibitory action (IC50); assay type: biochemical
T2 construct: purchased Cosmobio-ERL HFXa-1011
Description: Measurement of FXa Inhibitory Action (IC50)
From the below-described equation, an inhibitory ratio % of each sample was determined.
as §2

[2] = test system: tissue thromboplastin-derived DIC; experiment: Anti-thrombus effects in a tissue thromboplastin-derived rat DIC model; assay type: in vivo; conditions: oral 30 mg/kg, tissue thromboplastin one hour after the sample
Description: A rat was anesthetized with halothane. After the collection of the blood (for measurement of the number of platelets, anti-FXa activity and TAT) from its cervical vein by using 1/10 part by weight of 3.13% (w/v) sodium citrate, the sample was administered orally. At an appropriate time after the administration, the rat was intraperitoneally anesthetized ([…]) with Nembutal (50 mg/ml pentobarbital sodium, Abott Laboratories), followed by intravenous drip of 0.2 U/ml of tissue thromboplastin (Thromboplastin C plus, Dade Diagnostics of P. R. Inc.,) from the femoral vein for one minute at a rate of 2.5 to 3.0 ml/kg/min. The blood was collected (for measuring the number of platelets and anti-FXa activity) from the cervical vein 10 minutes after the intravenous drip and the blood was collected (for measuring TAT) from the cervical vein 20 minutes after the blood collection. The number of platelets, anti-FXa activity in the plasma and TAT concentration of each blood sample were measured. The number of the platelets was measured by an automatic cytometer, while the anti-FXa activity in the plasma was measured in a similar manner to that described in Test 4.
For the measurement of TAT (Thrombin-anti Thrombin=complex), EnzygnostR TAT micro kit (Boering Verke) was employed.

[3] = 4 U/ml human thrombin, substrate S2266, absorbance at 405 nm, room temperature, read-out: Concentration (nM) of the sample at which 50% of thrombin activity is inhibited
[4] = 0.05 U/ml human FXa, substrate S2222, absorbance at 405 nm, room temperature, read-out: Concentration (nM) of the sample at which 50% of Fxa activity is inhibited
[5] = same test as Tables 1-6, read-out: FXa 50% inhibitory concentrations

T2 sequence (P00742 235-488 limits assumed): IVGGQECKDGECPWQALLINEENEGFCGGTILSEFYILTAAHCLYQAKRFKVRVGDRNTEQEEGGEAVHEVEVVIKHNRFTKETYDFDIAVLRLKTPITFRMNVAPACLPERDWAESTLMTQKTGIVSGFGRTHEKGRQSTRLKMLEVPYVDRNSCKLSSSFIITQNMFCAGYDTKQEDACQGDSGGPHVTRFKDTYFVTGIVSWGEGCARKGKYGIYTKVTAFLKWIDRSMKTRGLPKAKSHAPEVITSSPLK
T2 sequence (P00742 41-179 partner limits assumed): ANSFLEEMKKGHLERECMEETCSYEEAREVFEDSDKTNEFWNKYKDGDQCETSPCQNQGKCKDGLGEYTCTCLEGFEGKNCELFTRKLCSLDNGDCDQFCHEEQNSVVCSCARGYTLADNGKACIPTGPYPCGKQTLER
Chain of human Factor Xa (P00742 235-488 limits assumed): as the sequence (P00742 235-488 limits assumed) above
Chain of human Factor Xa (P00742 41-179 partner limits assumed): as the sequence (P00742 41-179 partner limits assumed) above

IC50 (human thrombin; [3]) [nM]	IC50 (human FXa; [4]) [nM]	SMILES	further results
–	–	CN1Cc2ccc(C(=O)N3CCN(S(=O)(=O)c4cc5cc(Cl)ccc5[nH]4)CC3)cc2C1 (as salt: salt) [Example B-190, 1-[(5-Chloroindol-2-yl)sulfonyl]-4-[(2-methylisoindolin-5-yl)carbonyl]piperazine]	melting point: 175 to 180 °C (dec.)
–	–	Cl.O=C(C1CC=C(c2ccncc2)CC1)N1CCN(S(=O)(=O)c2ccc3cc(Cl)ccc3c2)CC1 (racemic) [Example A-60, 1-[(6-Chloronaphthalen-2-yl)sulfonyl]-4-[[(1RS)-4-(pyridin-4-yl)-3-cyclohexene]carbonyl]piperazine hydrochloride]	extension of the prothrombin time (ratio after/before administration) [1]: 1.18 times; anti-FXa activity in the plasma (human Factor Xa): 70%
2220	27	C#Cc1ccc2[nH]c(S(=O)(=O)N3CCN(C(=O)c4ccc(-c5ccncc5)cc4)CC3)cc2c1 [Example A-103, 1-[(5-Ethynylindol-2-yl)sulfonyl]-4-[4-(pyridin-4-yl)benzoyl]piperazine]	–
19000	–	O=C(c1ncc(-c2ccncc2)cn1)N1CCN(S(=O)(=O)c2cc3cc(Cl)ccc3[nH]2)CC1 [Example A-105, 1-[(5-Chloroindol-2-yl)sulfonyl]-4-[[5-(pyridin-4-yl)pyrimidin-2-yl]carbonyl]piperazine]	–
1550	6.9	O=C(c1ccc(-c2cccc[n+]2[O-])cc1)N1CCN(S(=O)(=O)c2cc3cc(Cl)ccc3[nH]2)CC1 [Example A-109, 2-[4-[[4-[(5-Chloroindol-2-yl)sulfonyl]piperazin-1-yl]carbonyl]phenyl]pyridine N-oxide]	–
4100	10.5	O=C(c1ccc(-c2cccc[n+]2[O-])cc1)N1CCN(S(=O)(=O)c2cc3ccc(Cl)cc3s2)CC1 [Example A-117, 2-[4-[[4-[(6-Chlorobenzo[b]thien-2-yl)sulfonyl]piperazin-1-yl]carbonyl]phenyl]pyridine N-oxide]	–
16000	23	O=C(c1ncc(-c2ccncc2)cn1)N1CCN(S(=O)(=O)c2ccc3cc(Cl)ccc3c2)CC1 [Example A-123, 1-[(6-Chloronaphthalen-2-yl)sulfonyl]-4-[[5-(pyridin-4-yl)pyrimidin-2-yl]carbonyl]piperazine]	–
> 100000	5.6	O=C(c1ncc(-c2ccncc2)cn1)N1CCN(S(=O)(=O)c2cc3ccc(Cl)cc3s2)CC1 [Example A-132, 1-[(6-Chlorobenzothiophen-2-yl)sulfonyl]-4-[[5-(pyridin-4-yl)pyrimidin-2-yl]carbonyl]piperazine]	–
7700	10	O=C(c1ncc(-c2cc[n+]([O-])cc2)cn1)N1CCN(S(=O)(=O)c2cc3ccc(Cl)cc3s2)CC1 [Example A-133, 4-[2-[[4-[(6-Chlorobenzo[b]thien-2-yl)sulfonyl]piperazin-1-yl]carbonyl]pyrimidin-5-yl]pyridine N-oxide]	–
10200	4.6	O=C(c1ncc(-c2cc[n+]([O-])cc2)cn1)N1CCN(S(=O)(=O)c2cc3cc(Cl)ccc3[nH]2)CC1 [Example A-134, 4-[2-[[4-[(5-Chloroindol-2-yl)sulfonyl]piperazin-1-yl]carbonyl]pyrimidin-5-yl]pyridine N-oxide]	–
4100	60	O=C(c1cnc(-c2ccncc2)cn1)N1CCN(S(=O)(=O)c2ccc3cc(Cl)ccc3c2)CC1 [Example A-137, 1-[(6-Chloronaphthalen-2-yl)sulfonyl]-4-[[5-(pyridin-4-yl)pyrazin-2-yl]carbonyl]piperazine]	–
5900	5	O=C(c1cnc(-c2ccncc2)cn1)N1CCN(S(=O)(=O)c2cc3cc(Cl)ccc3[nH]2)CC1 [Example A-138, 1-[(5-Chloroindol-2-yl)sulfonyl]-4-[[5-(pyridin-4-yl)pyrazin-2-yl]carbonyl]piperazine]	–
1370	6.8	O=C(c1cnc(-c2cc[n+]([O-])cc2)cn1)N1CCN(S(=O)(=O)c2cc3cc(Cl)ccc3[nH]2)CC1 [Example A-140, 4-[5-[[4-[(5-Chloroindol-2-yl)sulfonyl]piperazin-1-yl]carbonyl]pyrazin-2-yl]pyridine N-oxide]	–
> 50000	15	C#Cc1ccc2cc(S(=O)(=O)N3CCN(C(=O)c4ncc(-c5ccncc5)cn4)CC3)sc2c1 [Example A-216, 4-[[5-(Pyridin-4-yl)pyrimidin-2-yl]carbonyl]-1-[(6-ethynylbenzo[b]thien-2-yl)sulfonyl]piperazine]	–
–	0.7	O=C(CC1CN(S(=O)(=O)c2cc3cc(Cl)ccc3[nH]2)CCN1C(=O)c1ncc(-c2cc[n+]([O-])cc2)s1)N1CCCC1 (centres unmarked) [Example A-298, 4-[2-[[4-[(5-Chloroidol-2-yl)sulfonyl]-2-[(pyrrolidin-1-yl)carbonylmethyl]piperazin-1-yl]carbonyl]thiazol-5-yl]pyridine N-oxide]	–
–	–	CC1Cc2nc(C(=O)N3CCN(S(=O)(=O)c4ccc5cc(Cl)ccc5c4)CC3C(N)=O)sc2CN1.Cl (centres unmarked) [Example B-36, 2-Carbamoyl-4-[(6-chloronaphthalen-2-yl)sulfonyl]-1-[(6-methyl-4,5,6,7-tetrahydrothiazolo[5,4-c]pyridin-2-yl)carbonyl]piperazine hydrochloride]	thrombin time (result in words) [1]: extended the thrombin time; anti-FXa action in the plasma (result in words) [2]: apparent anti-FXa action in the plasma was recognized; decrease in the number of the platelets [2]: suppressed; increase in the TAT concentration [2]: suppressed; anti-FXa activity in the plasma (human Factor Xa): 68%
–	–	CN1CCc2nc(C(=O)N3CCN(S(=O)(=O)c4cc5cc(Cl)ccc5[nH]4)CC3)sc2C1 [Example B-54, hydrochloride]	IC50 (human thrombin; same test as Tables 7-8, read-out: thrombin 50% inhibitory concentration): 1050 nM; IC50 (human FXa; [5]): 5 nM
–	–	C[n+]1ccc2nc(C(=O)N3CCN(S(=O)(=O)c4ccc5cc(Cl)ccc5c4)CC3)sc2c1 [Example B-61]	IC50 (human FXa; [5]): 30 nM
–	–	CN1CCc2nc(C(=O)N3CCN(S(=O)(=O)c4ccc5cc(Cl)ccc5c4)CC3CC(=O)N3CCOCC3)sc2C1 (centres unmarked) [Example B-63, 4-[(6-Chloronaphthalen-2-yl)sulfonyl]-1-[(6-methyl-4,5,6,7-tetrahydrothiazolo[5,4-c]pyridin-2-yl)carbonyl]-2-[[(morpholin-4-yl)carbonyl]methyl]piperazine hydrochloride]	IC50 (human FXa; [5]): 12.5 nM
–	–	CN1CCc2nc(C(=O)N3CCN(S(=O)(=O)c4cc5cc(Cl)ccc5[nH]4)CC3CC(=O)N3CCOCC3)sc2C1 (centres unmarked) [Example B-99, hydrochloride]	IC50 (human FXa; [5]): 1.7 nM
–	–	O=C(c1ccc2c(c1)CNC2)N1CCN(S(=O)(=O)c2cc3cc(Cl)ccc3[nH]2)CC1 [Example B-189, 1-[(5-Chloroindol-2-yl)sulfonyl]-4-[(isoindolin-5-yl)carbonyl]piperazine]	melting point: 196 to 199 °C (dec.)
